These results are taken from patent publication US8883841B2, “Oncogenic ras-specific cytotoxic compound and methods of use thereof” (The Board of Regents of the University of Texas System, priority 2005, dated 2014).

What all share (format): cell-based, human
Assay [1] relates to Bax, Bik, Bcl-2, Bcl-XL, Mst1, B-Raf, PKCzeta and PKCiota. The experiment in a line: Western blot analysis of apoptosis/Ras signaling proteins. As to conditions: T29, T29Kt1 and H460 cells, 12 h. The method, then:
(§1) Ras Signaling Pathway and Molecular Mechanisms of Oncrasin-induced apoptosis. To investigate molecular mechanisms of apoptosis induction by Oncrasin compounds, levels several proteins that are involved in apoptosis and/or involved in Ras signaling pathways were determined, including Bax, Bik, Bc12, Bcl-XL, Raf-1, B-Raf, Akt, Mst1 and atypical protein kinase C (aPKC) zeta and PKCiota. To study which molecules are affected by Oncrasin treatment, T29, T29Kt1 and H460 cells were treated with Oncrasin-1 at an optimal concentration, around IC60 to IC80 for T29Kt1 and H460 cells. Cell lysates were collected 12 h after the treatment and subjected to Western blot analysis.
A general note: Immunoblotting shows a protein as a band on a membrane.

In assay [2] the test system is PKCiota. The assay is described as follows: Immunohistochemical staining, subcellular localization of PKCiota. How it is done: Effects on subcellular localization of PKCiota. […] To further investigate molecular mechanisms of Oncrasin action the inventors studied the subcellular localization of several molecules involved in Ras-signaling pathway because the functions of Ras and other proteins are directly related to their subcellular localizations. For this purpose, T29Kt1 or H460 cells were seeded on cover glass slides and treated with DMSO or Oncrasin-1 for 12 h. Cells were then fixed with paraformaldehyde, permeabilized with Triton X-100 and stained with various antibodies for immunohistochemical examination. […] Nevertheless, substantial subcellular localization change was detected for PKCiota after Oncrasin-1 treatment (FIG. 6). In both H460 and T29Kt1 cells, both PKCiota and PKCzeta were diffusely distributed in cells with high concentration on cell membrane in nucleus, consisting with previous reports that aPKC contains both nuclear localization signal (NLS) and nuclear export signal (NES), and can shuttle between cytoplasm and nucleus, which was regulated by intramolecular conformational changes, phosphorylation or by treatment with growth factors (Perander et al., 2001; White et al., 2002; Neri et al., 1999). […] Such aggregation of PKCiota was not observed in Oncrasin-resistant T29 and H1299 cells. The inventors then tested whether PKCiota aggregation in the nucleus can be induced by other chemotherapeutic agents such as 5-fluorouracil (5-FU) and paclitaxol.

The test system of assay [3] is TNFα-induced NFκB activation. The experiment in a line: NFκB reporter plasmid (pNFκB-Luc) luciferase assay in T29Kt1 cells. As to conditions: 10 μM, TNFα 1 ng/ml, 8 h. How it is done: FIGS. 11A-11C Suppression of TNFα-induced NFκB activation. NKκB reporter plasmid assay. T29K cells were transfected with pNFκB-Luc and pCMV-lacZ. 12 h later, the cells were treated with TNFα (1 ng/ml) with or without (FIG. 11A) Oncrasin-1 (10 μM) or (FIG. 11B) Sulindac (10 μm). The luciferase activity was determined at 8 h after the treatment and normalized with beta-gal activity. (FIG. 11C) H460 and T29K cells were treated with DMSO or different concentrations of Oncrasin-1 as indicated for 12 h, with or without TNFα (1 ng/ml). The NFκB activity was analyzed by EMSA.
Suppression of NFκB. In a separated study, the effect of Oncrasin compounds on NF-κB activity was assessed. Nuclear factor-κB (NF-κB)/Rel represents a group of structurally related and evolutionarily conserved transcriptional factors that play critical roles in chronic and acute inflammatory diseases, autoimmune diseases and various type of cancers (Karin and Neriah, 2000; Karin and Karin, 2006; Barnes et al., 1997). In unstimulated cells, most NF-κB/Rel dimers are bound to IκBs and retained in the cytoplasm. Upon a various stimulations, IκBs are phosphorylated and rapidly degraded, releasing NF-κB, which then enters the nucleus and executes transcriptional functions. […] The luciferase activity was determined and normalized for transfection with beta-galactosidase activity. […]

In assay [4] the test system is Rad51. The experiment in a line: Antibody staining, subcellular localization of Rad51. As to conditions: T29Kt1 cells. The text has this:
Effects on RNA spliceosome. To investigate the nature of this PKCiota aggregates in the nucleus, the effect of Oncrasin-1 on SC35, a protein required for RNA splicing and assembly of spliceosome (Fu et al., 1992; Vellard et al., 1992), and on Rad51, a homologous DNA recombinase that involves in DNA repair (Benson et al., 1994; Baumann et al., 1996) were studied. […] and DNA repairing are the two important functions executed in the nucleus. In untreated or DMSO-treated cells, SC35 was localized in nucleus as speckles, either diffusely distributed or concentrated as granule clusters (Mistele et al., 1997), whereas Rad51 was more uniformly distributed inside the nucleus. […] This aggregation of SC35 was not observed in Oncrasin resistant T29 cells upon the treatment with Oncrasin-1. […] The effects of Oncrasin on another spliceosome protein, alternative splicing factor/splicing factor 2 (ASF/SF2), was studied (Krainer et al., 1991). […] In the resistant T29 cells, however, such an aggregation is not observed (FIG. 8C).

For assay [5], the system named is Akt. The experiment in a line: Western blot analysis of Akt. As to conditions: 1 μM, 12 h. How it is done: as §1

As for `O=Cc1cn(Cc2ccc(Cl)cc2)c2ccccc12` [Oncrasin K001, 1H-Indole-3-carboxaldehyde, 1-[(4-chlorophenyl)methyl]-(9CI)], in assay [1], the “levels of Bax, Bik, Bcl-2, Bcl-XL, Mst1, B-Raf, PKCzeta and PKCiota” value is listed as “did not result in noticeable changes”. The “PKCiota aggregation in the nucleus, H460 cells” value in assay [2] (12 h) is given as “aggregation of PKCiota into large foci in nucleus”. Besides, the “PKCiota aggregation in the nucleus, T29Kt1 cells” value in assay [2] (12 h, comparators at doses giving similar cell killing) is recorded as “aggregation of PKCiota into large foci in nucleus”. The “PKCiota aggregation, T29 and H1299 cells” value in assay [2] (Oncrasin-resistant cells) was “not observed”. The “suppression of TNFα-induced NFκB activation (luciferase)” value in assay [3] was “more active than Sulindac”. Also, in assay [4], the “effect on Rad51” value is given as “no obvious effect”. Besides, the “Akt level in H460 cells” value in assay [5] is “down regulation”.
